The test relates to Plasmodium berghei. The test can be described thus: Luciferase/luciferin-expressing antifolate-resistant parasites were used to infect a culture of HepG2 cells that were pre-incubated with compounds. Infected hepatocytes emit light due to the luciferase reaction. Assay results are presented as the percent inhibition of light emission compared to control. […]. It counts as functional. Conditions: sporozoite; for IC90: read-out: LUCIFERASE INFECTION ASSAY - IC90.

As a reminder, the IC50 is the concentration needed to halve the response being measured. One may read the IC90 as the concentration needed for an effect of 90%. With `Cc1nn(CC(C)C)c(Cl)c1C(=O)Nc1nc(-c2ccccn2)cs1`, the IC90 turned out to be 3.35 µM. Under “HEPG2TOX_HILL_SLOPE 0.847, HEPG2TOX_R_SQUARED 0.93, PBLUC_HILL_SLOPE 12, PBLUC_R_SQUARED 0.706, read-out: LUCIFERASE INFECTION ASSAY - IC50”, the IC50 was 2.79 µM.

`Cc1ccccc1-c1cn2c(-c3ccc4c(c3)OCO4)cnc2cn1`: the IC90 worked out at 0.821 µM. Where the note is “HEPG2TOX_HILL_SLOPE 0.84, HEPG2TOX_R_SQUARED 0.902, PBLUC_HILL_SLOPE 1.93, PBLUC_R_SQUARED 0.734, read-out: LUCIFERASE INFECTION ASSAY - IC50”, the IC50 turned out to be 0.263 µM.

`Cc1nn(-c2ccc(C(F)(F)F)cn2)c2ncc(CCCO)cc12`: the IC90 is > 10 µM. Moreover, where the note is “HEPG2TOX_HILL_SLOPE 0.869, HEPG2TOX_R_SQUARED 0.0884, read-out: LUCIFERASE INFECTION ASSAY - IC50”, the IC50 was > 10 µM.

Take `CCCN1C(=O)/C(=N\OCC(=O)c2cc(C)n(Cc3cccs3)c2C)c2ccccc21`: the IC90 was > 10 µM. The IC50 (HEPG2TOX_HILL_SLOPE 0.794, HEPG2TOX_R_SQUARED 0.3, read-out: LUCIFERASE INFECTION ASSAY - IC50) is > 10 µM.

As to `Cc1cccc(C)c1OC(=O)c1cn(Cc2ccccc2)nc1-c1cccnc1`, the IC90 was > 10 µM. Further, the IC50 (HEPG2TOX_HILL_SLOPE 0.808, HEPG2TOX_R_SQUARED 0.825, read-out: LUCIFERASE INFECTION ASSAY - IC50) is > 10 µM.

Turning to `O=C(C(Sc1nc2cc(S(=O)(=O)N3CCCCC3)ccc2o1)c1ccccc1)N1CCCCC1` (stereo not given), the IC90 is > 10 µM. In addition, under “HEPG2TOX_HILL_SLOPE 0.777, HEPG2TOX_R_SQUARED 0.137, read-out: LUCIFERASE INFECTION ASSAY - IC50”, the IC50 was > 10 µM.

With `CC(C)Oc1ccc(-c2nc3c4c5c(sc4ncn3n2)CN(C)CC5)cc1`, the IC90 was > 8.7 µM. Besides, the IC50 (HEPG2TOX_HILL_SLOPE 0.881, HEPG2TOX_R_SQUARED 0.629, PBLUC_HILL_SLOPE 9.03, PBLUC_R_SQUARED 0.277, read-out: LUCIFERASE INFECTION ASSAY - IC50) came out at 8.35 µM.

As for `O=C1C=C/C(=N\Nc2ccccc2C(F)(F)F)c2cccnc21`, the IC90 worked out at 1.31 µM. The IC50 (HEPG2TOX_HILL_SLOPE 0.86, HEPG2TOX_R_SQUARED 0.964, PBLUC_HILL_SLOPE 13.8, PBLUC_R_SQUARED 0.7, read-out: LUCIFERASE INFECTION ASSAY - IC50) was determined as 1.12 µM.

Take `COC(=O)c1c(C)[nH]c(C(=O)N2CCCN(Cc3ccc(C(F)(F)F)cc3)CC2)c1C`: the concentration for an effect of 90% (IC90) worked out at 3.51 µM. The IC50 (HEPG2TOX_HILL_SLOPE 0.883, HEPG2TOX_R_SQUARED 0.94, PBLUC_HILL_SLOPE 33.9, PBLUC_R_SQUARED 0.31, read-out: LUCIFERASE INFECTION ASSAY - IC50) is 3.29 µM.

Turning to `Cc1ccc(O)c(C(=O)NCC(C)c2ccccc2)c1` (stereo not given), the IC90 came out at 9.34 µM. The IC50 (HEPG2TOX_HILL_SLOPE 0.817, HEPG2TOX_R_SQUARED 0.794, PBLUC_HILL_SLOPE 3.45, PBLUC_R_SQUARED 0.175, read-out: LUCIFERASE INFECTION ASSAY - IC50) turned out to be 4.94 µM.

With `COc1ccccc1N1CCN(c2ncnc3sc(C)c(-c4ccc(F)cc4)c23)CC1`, the 90% effect concentration (IC90) is > 10 µM. Besides, for the setting “HEPG2TOX_HILL_SLOPE 0.826, HEPG2TOX_R_SQUARED 0.707, read-out: LUCIFERASE INFECTION ASSAY - IC50”, the IC50 was > 10 µM.

As to `COc1cncc(-c2cc3c(cn2)nc(NCCc2cc(OC)ccc2OC)n3C)c1`, the IC90 turned out to be 8.42 µM. The IC50 (HEPG2TOX_HILL_SLOPE 0.77, HEPG2TOX_R_SQUARED 0.89, PBLUC_HILL_SLOPE 0.989, PBLUC_R_SQUARED 0.368, read-out: LUCIFERASE INFECTION ASSAY - IC50) turned out to be 0.913 µM.

`N#CC(C#N)=NNc1ccc(F)cc1F`: the IC90 is > 16 µM. Under “HEPG2TOX_HILL_SLOPE 0.862, HEPG2TOX_R_SQUARED 0.0964, read-out: LUCIFERASE INFECTION ASSAY - IC50”, the half-inhibitory concentration (IC50) was > 16 µM.

Regarding `CC(=O)Nc1ccc(NC(=O)C2=COC3=NC(=O)N(Cc4ccccc4C)CCN23)cc1`, the IC90 is > 10 µM. For the setting “HEPG2TOX_HILL_SLOPE 0.88, HEPG2TOX_R_SQUARED 0.892, PBLUC_HILL_SLOPE 1, PBLUC_R_SQUARED 0.725, read-out: LUCIFERASE INFECTION ASSAY - IC50”, the IC50 was 4.16 µM.

Regarding `Cc1cc(C)nc(-n2[nH]c3[nH]c(-c4cccc5ccccc45)cc(=O)c3c2=O)n1`, the IC90 amounted to 1.99 µM. Moreover, the 50% inhibitory concentration (IC50) (HEPG2TOX_HILL_SLOPE 0.872, HEPG2TOX_R_SQUARED 0.686, PBLUC_HILL_SLOPE 1.74, PBLUC_R_SQUARED 0.695, read-out: LUCIFERASE INFECTION ASSAY - IC50) amounted to 0.566 µM.

Turning to `C=CCNC(=S)N1N=C2/C(=C/c3ccc(OCC)cc3)CCCC2C1c1ccc(OCC)cc1` (stereo not given), the IC90 is > 10 µM. The concentration for half-maximal inhibition (IC50) (HEPG2TOX_HILL_SLOPE 0.856, HEPG2TOX_R_SQUARED 0.318, PBLUC_HILL_SLOPE 2.55, PBLUC_R_SQUARED 0.497, read-out: LUCIFERASE INFECTION ASSAY - IC50) was found to be 4.45 µM.

Regarding `Cc1ccc(-c2cs/c(=N\CCN3CCOCC3)n2/N=C/c2cccs2)cc1C`, the IC90 was > 10 µM. Under “HEPG2TOX_HILL_SLOPE 0.856, HEPG2TOX_R_SQUARED 0.317, read-out: LUCIFERASE INFECTION ASSAY - IC50”, the half-maximal inhibitory concentration (IC50) was > 10 µM.

Take `CCOc1cccc(-c2cn3c(-c4ccc(OC)cc4)cnc3cn2)c1`: the IC90 amounted to 0.375 µM. Further, where the note is “HEPG2TOX_HILL_SLOPE 0.801, HEPG2TOX_R_SQUARED 0.8, PBLUC_HILL_SLOPE 14.9, PBLUC_R_SQUARED 0.835, read-out: LUCIFERASE INFECTION ASSAY - IC50”, the IC50 stood at 0.324 µM.

For the molecule `Cc1ccc2ncnc(NCCc3ccccc3)c2c1`, the IC90 amounted to 2.82 µM. For the same molecule, under “HEPG2TOX_HILL_SLOPE 0.814, HEPG2TOX_R_SQUARED 0.649, PBLUC_HILL_SLOPE 2.08, PBLUC_R_SQUARED 0.658, read-out: LUCIFERASE INFECTION ASSAY - IC50”, the IC50 is 0.984 µM.

On to `C/C(=N\NC(=O)c1ccc(C(F)(F)F)cc1)c1ccccc1O`, for which the IC90 turned out to be 3.38 µM. Besides, the IC50 (HEPG2TOX_HILL_SLOPE 0.838, HEPG2TOX_R_SQUARED 0.996, PBLUC_HILL_SLOPE 3.61, PBLUC_R_SQUARED 0.312, read-out: LUCIFERASE INFECTION ASSAY - IC50) came to 1.84 µM.

Consider `CCOC(=O)C1=C(C)NC(C)=C(C(=O)OCC)C1C(=O)OCC(=O)Nc1c(Br)cc(C)cc1Br`, for which the IC90 was > 10 µM. Further, where the note is “HEPG2TOX_HILL_SLOPE 0.766, HEPG2TOX_R_SQUARED 0.947, PBLUC_HILL_SLOPE 2.01, PBLUC_R_SQUARED 0.575, read-out: LUCIFERASE INFECTION ASSAY - IC50”, the IC50 is 4.48 µM.

In the case of `Cc1cc(SC(C)C(=O)N(Cc2ccccc2)Cc2ccccc2)nc2ccccc12` (stereo not given), the 90% effect concentration (IC90) is > 10 µM. Further, the IC50 (HEPG2TOX_HILL_SLOPE 0.863, HEPG2TOX_R_SQUARED 0.817, read-out: LUCIFERASE INFECTION ASSAY - IC50) is > 10 µM.

With `COc1ccc(/C=C/c2ccc3c(Cl)cc(Cl)c(O)c3n2)cc1`, the IC90 was determined as 0.43 µM. Besides, the IC50 (HEPG2TOX_HILL_SLOPE 0.83, HEPG2TOX_R_SQUARED 0.868, PBLUC_HILL_SLOPE 16.3, PBLUC_R_SQUARED 0.735, read-out: LUCIFERASE INFECTION ASSAY - IC50) worked out at 0.375 µM.

Consider `O=C(Nc1ccc(Br)c(C(F)(F)F)c1)c1ccc(N2CCOCC2)nc1`, for which the IC90 is > 10 µM. Further, the IC50 (HEPG2TOX_HILL_SLOPE 0.861, HEPG2TOX_R_SQUARED 0.877, PBLUC_HILL_SLOPE 1.11, PBLUC_R_SQUARED 0.718, read-out: LUCIFERASE INFECTION ASSAY - IC50) came out at 1.48 µM.

Consider `Cn1ccc2cc(-c3cn4c(-c5ccc6c(c5)OCO6)cnc4cn3)ccc21`, for which the IC90 is 0.402 µM. Also, the IC50 (HEPG2TOX_HILL_SLOPE 0.831, HEPG2TOX_R_SQUARED 0.884, PBLUC_HILL_SLOPE 11.3, PBLUC_R_SQUARED 0.726, read-out: LUCIFERASE INFECTION ASSAY - IC50) amounted to 0.33 µM.

Take `COc1ccccc1-[n+]1c(C)cc(C=C2Sc3ccc4ccccc4c3N2C)cc1C`: the IC90 is 0.611 µM. For the same molecule, for the setting “HEPG2TOX_HILL_SLOPE 0.863, HEPG2TOX_R_SQUARED 0.853, PBLUC_HILL_SLOPE 2.28, PBLUC_R_SQUARED 0.851, read-out: LUCIFERASE INFECTION ASSAY - IC50”, the concentration for half-maximal inhibition (IC50) came to 0.233 µM.

Take `OCc1ccc(-c2cnc3ccc(NCc4ccc(F)cc4)nn23)cc1`: the IC90 was determined as 1.24 µM. Moreover, under “HEPG2TOX_HILL_SLOPE 0.86, HEPG2TOX_R_SQUARED 0.883, PBLUC_HILL_SLOPE 13, PBLUC_R_SQUARED 0.726, read-out: LUCIFERASE INFECTION ASSAY - IC50”, the IC50 was 1.05 µM.

Take `COc1ccccc1N(Cc1nc(N)nc(Nc2ccc(C)cc2)n1)S(=O)(=O)c1cccs1`: the IC90 was determined as 4.3 µM. For the same molecule, the concentration for half-maximal inhibition (IC50) (HEPG2TOX_HILL_SLOPE 0.853, HEPG2TOX_R_SQUARED 0.978, PBLUC_HILL_SLOPE 2.92, PBLUC_R_SQUARED 0.627, read-out: LUCIFERASE INFECTION ASSAY - IC50) stood at 2.03 µM.

With `O=C(Cc1cn2ccsc2n1)NNC(=O)c1cc(Cl)ccc1O`, the IC90 turned out to be 0.414 µM. Also, the IC50 (HEPG2TOX_HILL_SLOPE 0.838, HEPG2TOX_R_SQUARED 0.788, PBLUC_HILL_SLOPE 20.5, PBLUC_R_SQUARED 0.865, read-out: LUCIFERASE INFECTION ASSAY - IC50) came out at 0.372 µM.

In the case of `CC(=O)Nc1cccc(-c2cnc3ccc(-c4cccs4)nn23)c1`, the IC90 turned out to be 3.37 µM. For the setting “HEPG2TOX_HILL_SLOPE 0.814, HEPG2TOX_R_SQUARED 0.982, PBLUC_HILL_SLOPE 1.1, PBLUC_R_SQUARED 0.75, read-out: LUCIFERASE INFECTION ASSAY - IC50”, the IC50 stood at 0.461 µM.
